According to US8822433B2, “Complex combining an organic silicon derivative with hyaluronic and acid calibrated fragments, for preventive and repairing action of cutaneous damages” (Exsymol S.A.M., priority 2008, dated 2014):

What was measured:
[1] = tested on: reconstructed human epidermis model (RHE) keratinocytes; assay: Ki67 immunotracking of cell proliferation on reconstructed human epidermis (tests 1 and 4); format: cell-based; details: for % cells expressing Ki67/number of total cells (% in relation to the control): vs PBS control
Protocol: (§1) As purely an indication, the invention is hereafter illustrated by the following tests above described in the specification (tests 1 to 3), and a comparative study (test 4). In tests 1, 2 and 4, the experimental studies have been carried out on a reconstructed human epidermis model (RHE, supplier: SkinEthic®) whose interest is a strong homology with human epidermis.
(§2) The culture of RHE consisted in placing them in a “MCDB 153” growth medium (supplier : SkinEthic®) containing […] of insulin, 1.5 mM of CaCl2 and […] of gentamycine, for 24 hours at 37° C. and 5% CO2.
The observation of cellular proliferation is achieved with the immunotracking technique (Gerdes and al., Int. J. Cancer (1983), vol. 31, pp. 13-20) by using the “Ki67” cell proliferation tracer, for the three following configurations (after a 100 1 twice-daily deposit on RHE): • case 1: PBS buffer solution (control) • case 2: HA fragments 150-600 kDa (concentrations 2 and 5%) • case 3: MSH complex (concentrations 2 and 5%)
Identically to the here-above test 1, keratinocytes' cellular proliferation is observed on reconstructed human epidermis RHE (with the immunotracking technique) for: • the MSH complex according to the invention (based on 150-600 kDa HA fragments) • the dimethylsilanediol hyaluronate marketed by the applicant under the “D.S.H. CN®” brand mark. • D.S.H. CN® is an organo-silicon product resulting from the combination of dimethylsilanediol with hyaluronic acid of high molecular weight (1500 to 2200 kDa HA fragments).

IL8 = assay: ELISA dosage of pro-inflammatory interleukin IL8 in RHE culture supernatant (test 2); format: cell-based, human; details: for IL8 quantity: RHE supernatant after 24 hours of treatment
Protocol: as §1, §2
(§3) The culture of RHE is identical to the one of the herebefore test 1. The dosage of the IL1 and IL8 pro-inflammatory interleukines is achieved on a supernatant resulting from culture medium after 24 hours of treatment, with the help of ELISA dosage kits (R&D System Quantikine Immunoassay, D800C, DTA00C and DLA50), and for identical configurations to those of the above test 1.

IL1α = assay: ELISA dosage of pro-inflammatory interleukin IL1 in RHE culture supernatant (test 2); format: cell-based, human; details: for IL1α quantity: RHE supernatant after 24 hours of treatment
Protocol: as §1, §2, §3

bovine hyaluronidases = assay: Deterioration kinetic with hyaluronidases, agarose gel electrophoresis (test 3); format: in vitro ADME; details: 5, 15 and 30 min reaction at 37° C.; compared to fragmented HA non combined
Protocol: The experimental study consisted in measuring the deterioration kinetic of the MSH complex according to the invention submitted in vitro to bovine hyaluronidases, by electrophoresis on agarose gel. 10 1 of 1 mg/ml hyaluronidases are mixed to 50 1 of complex in a PBS buffer solution during 30 minutes at 37° C.
Successively at 5, 15 and 30 minutes, 10 1 of reaction mixture are taken, then heated at 95° C. in order to stop the enzymatic reaction. These 10 1 are then deposited on an agarose gel and a suitable stain (Stains all®) is used for the electrophoresis disclosure.

monomethylsilanetriol combined with one or several hyaluronic acid fragments of molecular weight between 150 and 600 kDa [MSH complex]
cytostimulation ([1]; compared to non combined fragmented HA): potentiated cytostimulation | % cells expressing Ki67/number of total cells (% in relation to the control) ([1]; concentration 2.5%, twice-daily deposit, three independent experiments): +14 (±1.0) % | % cells expressing Ki67/number of total cells (% in relation to the control) ([1]; concentration 5%, twice-daily deposit, three independent experiments): +63 (±0.5) % | % cells expressing Ki67/number of total cells (% in relation to the control) ([1]; test 4 (Table 4), concentration 5%): +69.5 (±3.1) % | IL8 quantity (IL8; concentration 2.5%): 20.1 (±7.2) pg/ml | IL8 quantity (IL8; concentration 5%): 34.8 (±13.7) pg/ml | IL8 type-interleukines' rate (IL8; in relation to the control and to the non combined HA fragment): reduction | induction of pro-inflammatory cytokines (IL1α; RHE, 24 hours, compared with control, IL1 and IL8): No significant induction | IL1α quantity (IL1α; concentration 2.5%): 3.5 (±1.8) pg/ml | IL1α quantity (IL1α; concentration 5%): 3.4 (±0.8) pg/ml | distribution of HA with a high molecular weight after hyaluronidase treatment (bovine hyaluronidases): more important distribution of HA with a high molecular weight
